Measured values reported in US8937155B2 (priority 2010, dated 2015).
Values after ≈ are worked out from the molar mass of the structure shown. “Also recorded” adds a separate entry of the source. Ends that are not written are not given here. Peptide text beside a SMILES is read from it.

Columns and labels:
E. coli BL21 AI = experiment: MIC, liquid broth microdilution assay; type: cell-based, Escherichia coli; conditions: 1% TSB, 37° C., 20±2 h
Method: (§1) Minimal inhibitory concentrations were determined in triplicates by a liquid broth microdilution assay in sterile 96-well plates (Greiner Bio-One GmbH, Frickenhausen, Germany) using a total volume of 100 μL per well (Amsterdam, D. Susceptibility testing of antimicrobials in liquid media in Antibiotics in laboratory medicine (ed. Lorian, V.) 52-111 (Lippincott Williams & Wilkins, Baltimore, 1996)). Aqueous peptide solutions (1 mg/mL) were serially two-fold diluted in 1% tryptic soy broth (TSB). A typical dilution series ranged from 128 μg/mL to 0.5 μg/mL in eight steps. Overnight cultures of bacteria were diluted with 1% TSB to 1.5×10^7 cells/mL (Klebsiella pneumoniae DSM 681, Escherichia coli BL21AI and DSM 10233) and 4×10^7 cells/mL (Micrococcus luteus ATCC 10240). Fifty μL of these solutions were added to each well gaining a starting cell concentration of 7.5×10^5 cells/well and 2×10^6 cells/well, respectively. The plates were incubated at 37° C. and the absorbance of each well was measured after 20±2 h at 595 nm.

in vitro [1] = conditions: for stability relative to the original oncocin sequence: bacterial lysate of E. coli BL21 AI; for half-life at 150 μg/mL: pH 7.4
Method: Bacteria (E. coli BL21 AI) were cultured over night at 37° C. in nutrient broth (Carl Roth GmbH & Co. KG, Karlsruhe, Germany). This suspension was centrifuged (5000 rpm, 4° C.) in a AVANTI® J=20-XP centrifuge using a JLA-10500 rotor (Beckman coulter, Fullerton, USA). The pellet was washed with phosphate buffered saline (PBS, 8.7 mmol/L Na2HPO4, 1.2 mmol/L KH2PO4, 150 mmol/L NaCl, pH 7.4) and centrifuged in an ALLEGRA® 21 R centrifuge (Beckman Coulter, 3000 rpm, 4° C., 20 min). The pellet was resuspended in PBS (60 mg/mL) and lysed on ice using ultra sonic (2×2 min with 2 s on/2 s off) applied via micro tip (750 W, 40% amplitude; Fisher Biobiock Scientific, Illkirch, France). One mL aliquots were centrifuged (15400 rpm, 20 min, 4° C.) and the supernatant was stored at −80′C.
The peptide concentration was determined with a Bradford protein assay (Bradford M M. Rapid and Sensitive Method for Quantitation of Microgram Quantities of Protein Utilizing Principle of Protein-Dye Binding. Analytical Biochemistry 72: 248-54, 1976). Briefly, 0.01% (w/v) Coomassie brilliant blue G250 was dissolved in 5% aqueous ethanol containing 8.5% orthophosphoric (Bradford reagent). The mixture was incubated first at 60° C. for 1 h and then at room temperature for 12 h. After filtration 200 μl of the reagent were mixed with 50 μl sample solution in a polystyrole 96-well plate and incubated for 15 min in the dark. The absorption was measured at 595 nm against the negative control (50 μl PBS+200 μL Bradford reagent). The protein concentration was calculated from a calibration curve of bovine serum albumin.
The stability against bacterial proteases was determined in a bacterial lysate of E. coli BL21 AI adjusted with PBS to a protein concentration of 0.5 mg/mL. Peptides were dissolved in the bacterial lysate at a final concentration of 150 μg/mL and incubated at 37° C. Aliquots were taken in triplicates after 0, 30, 60, 120, and 240 min and precipitated by addition of trichloroacetic acid to a final concentration of 3% (v/v). After 10 minutes on ice, the samples were centrifuged, the supernatant neutralized with sodium hydroxide solution (1 mol/L) and stored at −20° C. The samples were analyzed by RP-HPLC (Jupiter C18-column) using a linear aqueous acetonitrile or methanol gradient containing 0.1% (v/v) TFA. Metabolites were identified by MALDI-TOF-MS.

in vitro [2] = conditions: mouse
Method: (§2) The serum stabilities of all peptides were determined in pure and 25% (v/v) aqueous pooled mouse serum (PAA Laboratories GmbH, Pasching, Austria) (Hoffmann R, Vasko M, & Otvos L. Serum stability of phosphopeptides. Analytica Chimica Acta 352: 319-25, 1997). Peptides were dissolved in serum at a final concentration of 75 μg/mL and incubated at 37° C. Aliquots taken in triplicates after 0, 30, 60, 120 and 240 min were precipitated by addition of trichloroacetic acid to a final concentration of 3% (v/v). After 10 minutes on ice, the samples were centrifuged, the supernatant neutralized with sodium hydroxide solution (1 mol/L) and stored at −20° C. The samples were analyzed on the analytical Jupiter C18-column using a linear aqueous acetonitrile or methanol gradient containing 0.1% (v/v) TFA. The metabolites were identified by MALDI-TOF-MS.

M. luteus DSM 10240 = type: cell-based, Micrococcus luteus; conditions: DSM 10240, 2 h
Method: as §1, with “The plates were incubated at 37° C. and the absorbance of each well was measured after 20±2 h at 595 nm.” left out

K pneumoniae DSM 681 = type: cell-based, Klebsiella pneumoniae; conditions: DSM 681, 2 h
Method: as §1, with “The plates were incubated at 37° C. and the absorbance of each well was measured after 20±2 h at 595 nm.” left out

E. coli DSM 10233 = type: cell-based, Escherichia coli; conditions: DSM 10233, 2 h
Method: as §1, with “The plates were incubated at 37° C. and the absorbance of each well was measured after 20±2 h at 595 nm.” left out

[3] = full mouse serum
Method: as §2

[4] = full mouse serum (pooled mouse serum, PAA Laboratories); conditions: 37° C., up to 480 min
[5] = bacterial lysate of E. coli BL21 AI; conditions: 37° C., up to 240 min

| Molecule | minimal inhibitory concentration (MIC) E. coli BL21 AI (E. coli BL21 AI) [µg/mL] | stability relative to the original oncocin sequence (in vitro [1]) | half-life at 150 μg/mL (in vitro [1]; cells or culture medium) [h] | half-life at 75 μg/mL (in vitro [2]; full (pure) pooled mouse serum) [h] | minimal inhibitory concentration (MIC) M. luteus DSM 10240 (M. luteus DSM 10240) [µg/mL] | minimal inhibitory concentration (MIC) K pneumoniae DSM 681 (K pneumoniae DSM 681) [µg/mL] | minimal inhibitory concentration (MIC) E. coli DSM 10233 (E. coli DSM 10233) [µg/mL] | minimal inhibitory concentration (MIC) E. coli BL21 AI (E. coli BL21 AI; listed as 3) [µg/mL] | starting derivative not degraded after 480 min [3] | remaining at 8 h, 75 μg/mL (in vitro [2]; full (pure, undiluted) pooled mouse serum) [%] | cleaved bond [4] | cleaved bond [5] | half-life at 150 μg/mL (in vitro [1]; Escherichia coli) [h] | half-life at 75 μg/mL (in vitro [2]; pure (full) pooled mouse serum) [h] |
| --- | --- | --- | --- | --- | --- | --- | --- | --- | --- | --- | --- | --- | --- | --- |
| CC(C)C[C@H](NC(=O)[C@H](Cc1ccc(O)cc1)NC(=O)[C@@H]1CCCN1C(=O)[C@@H]1CCCN1C(=O)[C@H](CCCCN)NC(=O)[C@H](CC(=O)O)NC(=O)[C@@H](N)C(C)C)C(=O)N1CCC[C@H]1C(=O)N[C@@H](CCCNC(=N)N)C(=O)N1CCC[C@H]1C(=O)N[C@@H](CCCNC(=N)N)C(=O)N1CCC[C@H]1C(=O)N1CCC[C@H]1C(=O)N[C@@H](CCCNC(=N)N)C(=O)N[C@@H](CCCN)C(=O)N[C@H](C(=O)N[C@@H](Cc1ccc(O)cc1)C(=O)N[C@@H](CC(N)=O)C(=O)N[C@@H](CCCN)C(N)=O)[C@@H](C)O [SEQ ID NO. 2, VDKPPYLPRPRPPROTYNO-NH2] (HELM PEPTIDE1{V.D.K.P.P.Y.L.P.R.P.R.P.P.R.[Orn].T.Y.N.[Orn].[am]}$$$$V2.0; N-terminus assumed) | 4 (≈ 1.74 µM) | at least three times more stable | 2.83 | 2 | 8 (≈ 3.49 µM) | – | – | – | – | – | – | – | – | – |
| CC(C)C[C@H](NC(=O)[C@H](Cc1ccc(O)cc1)NC(=O)[C@@H]1CCCN1C(=O)[C@@H]1CCCN1C(=O)[C@H](CCCCN)NC(=O)[C@H](CC(=O)O)NC(=O)[C@@H](N)C(C)C)C(=O)N1CCC[C@H]1C(=O)N[C@@H](CCCNC(=N)N)C(=O)N1CCC[C@H]1C(=O)N[C@@H](CCCNC(=N)N)C(=O)N1CCC[C@H]1C(=O)N1C[C@H](O)C[C@H]1C(=O)N[C@@H](CCCNC(=N)N)C(=O)N1C[C@H](O)C[C@H]1C(=O)N[C@H](C(=O)N[C@@H](Cc1ccc(O)cc1)C(=O)N[C@@H](CC(N)=O)C(=O)N[C@@H](CCCN)C(N)=O)[C@@H](C)O [SEQ ID NO. 3, VDKPPYLPRPRP-4tHyp-R-4tHyp-TYNO-NH2] (HELM PEPTIDE1{V.D.K.P.P.Y.L.P.R.P.R.P.[Hyp].R.[Hyp].T.Y.N.[Orn].[am]}$$$$V2.0; N-terminus assumed) | 2 to 4 | at least three times more stable | 4 | > 8 | 32 (≈ 13.9 µM) | 8 (≈ 3.47 µM) | 2 to 4 | 4 (≈ 1.73 µM) | (60%) | – | – | – | – | – |
| CC[C@H](C)[C@H](NC(=O)[C@H](CCCN)NC(=O)[C@H](CCCNC(=N)N)NC(=O)[C@@H]1CCCN1C(=O)[C@@H]1CCCN1C(=O)[C@H](CCCNC(=N)N)NC(=O)[C@@H]1CCCN1C(=O)[C@H](CCCNC(=N)N)NC(=O)[C@@H]1CCCN1C(=O)[C@H](CC(C)C)NC(=O)[C@H](Cc1ccc(O)cc1)NC(=O)[C@@H]1CCCN1C(=O)[C@@H]1CCCN1C(=O)[C@H](CCCCN)NC(=O)[C@H](CC(=O)O)NC(=O)[C@@H](N)C(C)C)C(=O)N[C@@H](Cc1ccc(O)cc1)C(=O)N[C@@H](CC(N)=O)C(=O)N[C@@H](CCCN)C(N)=O [SEQ ID NO. 4, VDKPPYLPRPRPPROIYNO-NH2, reference compound] (HELM PEPTIDE1{V.D.K.P.P.Y.L.P.R.P.R.P.P.R.[Orn].I.Y.N.[Orn].[am]}$$$$V2.0; N-terminus assumed) | 8 (≈ 3.47 µM) | – | – | 2.92 | 8 (≈ 3.47 µM) | – | – | – | – | 60 | – | – | – | – |
| VDKPPYLPRPRPPRRIYNR-NH2 | – | – | – | – | – | – | – | – | – | – | Arg15-Ile16, major; also recorded: Asn18-Arg19, major | Pro10-Arg11; also recorded: Pro13-Arg14; also recorded: Arg15-Ile16 | – | – |
| VDKPPYLPRPRPPRRIYNR-NH2 [SEQ ID NO. 1, VDKPPYLPRPRPPRRIYNR-NH2, reference compound] | 4 | – | – | – | 8 | 4 | 16 | – | – | – | – | – | 1 | 0.5 |
